Among the data in patent US7932262B2 (Novartis AG, priority 2006, dated 2011) are IC50 and EC50 values, retold here.

Assay [1] concerns the target T1, PDK1 kinase (Homo sapiens, UniProt O15530).
T1 sequence (O15530 1-556): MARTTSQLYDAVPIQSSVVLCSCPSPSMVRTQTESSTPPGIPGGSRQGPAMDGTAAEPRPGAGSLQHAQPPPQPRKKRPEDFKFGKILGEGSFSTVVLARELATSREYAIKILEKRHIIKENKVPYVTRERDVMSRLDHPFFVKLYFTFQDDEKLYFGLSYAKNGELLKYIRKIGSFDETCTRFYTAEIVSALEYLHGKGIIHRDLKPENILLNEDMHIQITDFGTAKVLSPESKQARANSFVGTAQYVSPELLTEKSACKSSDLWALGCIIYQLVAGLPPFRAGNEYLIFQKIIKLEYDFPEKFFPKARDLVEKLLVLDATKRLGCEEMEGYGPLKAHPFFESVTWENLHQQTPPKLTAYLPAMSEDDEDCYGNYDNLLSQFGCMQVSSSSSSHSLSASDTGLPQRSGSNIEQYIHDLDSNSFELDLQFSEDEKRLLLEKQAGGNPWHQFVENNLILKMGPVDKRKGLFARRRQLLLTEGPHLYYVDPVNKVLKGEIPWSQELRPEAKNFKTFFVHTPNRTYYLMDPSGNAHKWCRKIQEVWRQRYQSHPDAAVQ
As to the kind of experiment: PDK1 Kinase Alpha Screen Assay. In kind it is biochemical. Particulars: read-out: PDK1 IC50. In a few lines:
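Test compounds were incubated with PDK1 kinase, 10 uM ATP and 50 nM biotinylated peptide substrate for 3-18 hours at pH 7.5 with 2.5% DMSO. Peptide phosphorylation was then detected by AlphaScreen proximity luminescence using a phospho-(Ser/Thr) PKA substrate antibody.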

For assay [2], the system named is PC-3 cells. In words: Cell Proliferation Assay (Cell Titer Glo), PC-3 cell line. In kind it is cell-based. Particulars: Homo sapiens, PC-3, PC3 cells; read-out: CPEC50 PC3. In a few lines:
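PC-3 cells, 1000 cells/well, left to adhere 3-5 h, then exposed for 3 days at 37° C to compounds as 1:3 serial dilutions from 500× DMSO stocks diluted in growth medium. Medium then replaced with fresh medium and viability read by Cell Titer Glo luminescence.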
For orientation: Cellular ATP, detected with luciferase, serves as a proxy for viable cell number.

Structures are written as SMILES.

By IC50 is commonly meant the concentration that inhibits the measured activity by half. Turning to `CC(C)N1CCN(c2ccc(-c3cccc4cnc(Nc5ccc(S(N)(=O)=O)cc5)nc34)cn2)CC1` [Compound 956, 4-(8-(6-(4-isopropylpiperazin-1-yl)pyridin-3-yl)quinazolin-2-ylamino)benzenesulfonamide], the IC50 in assay [1] was less than 5 µM. Further, the EC50 in assay [2] is less than 5 µM.

As to `NS(=O)(=O)c1ccc(Nc2ncc3cccc(-c4cncc(C(=O)O)c4)c3n2)cc1` [Compound 962, 5-(2-(4-sulfamoylphenylamino)quinazolin-8-yl)nicotinic acid], in assay [1], the IC50 was 5 to 10 µM. The EC50 in assay [2] was 5 to 10 µM.

Take `NS(=O)(=O)c1ccc(Nc2ncc3cc(C(F)(F)F)cc(-c4ccc(NCCN5CCCC5)nc4)c3n2)cc1` [Compound 963, 4-(8-(6-(2-(pyrrolidin-1-yl)ethylamino)pyridin-3-yl)-6-(trifluoromethyl)quinazolin-2-ylamino)benzenesulfonamide]: in assay [1], the half-maximal inhibitory concentration (IC50) is less than 5 µM. In assay [2], the EC50 is less than 5 µM.

`CN1CCN(c2ccc(-c3cc(C(F)(F)F)cc4cnc(Nc5ccc(S(N)(=O)=O)cc5)nc34)cn2)CC1` [Compound 964, 4-(8-(6-(4-methylpiperazin-1-yl)pyridin-3-yl)-6-(trifluoromethyl)quinazolin-2-ylamino)benzenesulfonamide]: the IC50 in assay [1] lay within 5 to 10 µM. The EC50 in assay [2] is less than 5 µM.

Turning to `NS(=O)(=O)c1ccc(Nc2ncc3cc(C(F)(F)F)cc(-c4ccc(N5CCNC(=O)C5)nc4)c3n2)cc1` [Compound 965, 4-(8-(6-(3-oxopiperazin-1-yl)pyridin-3-yl)-6-(trifluoromethyl)quinazolin-2-ylamino)benzenesulfonamide], the half-maximal inhibitory concentration (IC50) in assay [1] was less than 5 µM. Further, in assay [2], the EC50 was less than 5 µM.

Consider `CC(C)NCCCNc1ccc(-c2cccc3cnc(Nc4ccc(S(N)(=O)=O)cc4)nc23)cn1` [Compound 971, 4-(8-(6-(3-(isopropylamino)propylamino)pyridin-3-yl)quinazolin-2-ylamino)benzenesulfonamide], for which the IC50 in assay [1] was less than 5 µM. Moreover, the EC50 in assay [2] is less than 5 µM.

`NS(=O)(=O)c1ccc(Nc2ncc3cccc(-c4ccc(NCCCN5CCCC5)nc4)c3n2)cc1` [Compound 972, 4-(8-(6-(3-(pyrrolidin-1-yl)propylamino)pyridin-3-yl)quinazolin-2-ylamino)benzenesulfonamide]: the IC50 in assay [1] was less than 5 µM. Further, in assay [2], the EC50 was less than 5 µM.

For `CCN1CCC[C@H]1CNc1ccc(-c2cccc3cnc(Nc4ccc(S(N)(=O)=O)cc4)nc23)cn1` [Compound 973, (S)-4-(8-(6-((1-ethylpyrrolidin-2-yl)methyamino)-pyridin-3-yl)quinazolin-2-ylamino)benzenesulfonamide], the half-inhibitory concentration (IC50) in assay [1] is less than 5 µM. Moreover, the EC50 in assay [2] was less than 5 µM.

Regarding `CCN1CCC[C@@H]1CNc1ccc(-c2cccc3cnc(Nc4ccc(S(N)(=O)=O)cc4)nc23)cn1` [Compound 974, (R)-4-(8-(6-((1-ethylpyrrolidin-2-yl)methylamino)pyridin-3-yl)quinazolin-2-ylamino)benzenesulfonamide], the IC50 in assay [1] is less than 5 µM. The EC50 in assay [2] was less than 5 µM.

In the case of `CN1CCC(CNc2ccc(-c3cccc4cnc(Nc5ccc(S(N)(=O)=O)cc5)nc34)cn2)CC1` [Compound 975, 4-(8-(6-((1-methylpiperidin-4-yl)methylamino)pyridin-3-yl)quinazolin-2-ylamino)benzenesulfonamide], in assay [1], the IC50 was less than 5 µM. Moreover, the EC50 in assay [2] is less than 5 µM.

On to `CN(C)[C@@H]1CCN(C(=O)c2cncc(-c3cccc4cnc(Nc5ccc(S(N)(=O)=O)cc5)nc34)c2)C1` [Compound 976, (R)-4-(8-(5-(3-(dimethylamino)pyrrolidine-1-carbonyl)pyridin-3-yl)quinazolin-2-ylamino)benzenesulfonamide], for which, in assay [1], the IC50 was less than 5 µM. For the same molecule, the EC50 in assay [2] was in the range of 5 to 10 µM.

`CN1CCN(C(=O)c2cncc(-c3cccc4cnc(Nc5ccc(S(N)(=O)=O)cc5)nc34)c2)CC1` [Compound 977, 4-(8-(5-(4-methylpiperazine-1-carbonyl)pyridin-3-yl)quinazolin-2-ylamino)benzenesulfonamide]: in assay [1], the half-maximal inhibitory concentration (IC50) is less than 5 µM. The EC50 in assay [2] lay within 5 to 10 µM.

Take `CN(C)[C@H]1CCN(C(=O)c2cncc(-c3cccc4cnc(Nc5ccc(S(N)(=O)=O)cc5)nc34)c2)C1` [Compound 978, (S)-4-(8-(5-(3-(dimethylamino)pyrrolidine-1-carbonyl)pyridin-3-yl)quinazolin-2-ylamino)benzenesulfonamide]: in assay [1], the half-maximal inhibitory concentration (IC50) was less than 5 µM. In addition, in assay [2], the EC50 was in the range of 5 to 10 µM.

Take `NS(=O)(=O)c1ccc(Nc2ncc3cccc(-c4cncc(C(=O)NCCN5CCCC5)c4)c3n2)cc1` [Compound 979, N-(2-(pyrrolidin-1-yl)ethyl)-5-(2-(4-sulfamoylphenylamino)quinazolin-8-yl)nicotinamide]: in assay [1], the 50% inhibitory concentration (IC50) is less than 5 µM. Further, the EC50 in assay [2] is 5 to 10 µM.

As for `CN(C)C1CCN(C(=O)c2cncc(-c3cccc4cnc(Nc5ccc(S(N)(=O)=O)cc5)nc34)c2)CC1` [Compound 980, 4-(8-(5-(4-(dimethylamino)piperidine-1-carbonyl)pyridin-3-yl)quinazolin-2-ylamino)benzenesulfonamide], the IC50 in assay [1] is less than 5 µM. Also, in assay [2], the EC50 is 5 to 10 µM.

In the case of `CN1CCC(NC(=O)c2cncc(-c3cccc4cnc(Nc5ccc(S(N)(=O)=O)cc5)nc34)c2)CC1` [Compound 981, N-(1-methylpiperidin-4-yl)-5-(2-(4-sulfamoylphenylamino)quinazolin-8-yl)nicotinamide], in assay [1], the IC50 was less than 5 µM. In assay [2], the EC50 lay in the range of 5 to 10 µM.

Consider `CN1CCC(CNC(=O)c2cncc(-c3cccc4cnc(Nc5ccc(S(N)(=O)=O)cc5)nc34)c2)CC1` [Compound 982, N-((1-methylpiperidin-4-yl)methyl)-5-(2-(4-sulfamoylphenylamino)quinazolin-8-yl)nicotinamide], for which the IC50 in assay [1] was less than 5 µM. For the same molecule, the EC50 in assay [2] lay within 5 to 10 µM.

On to `NS(=O)(=O)c1ccc(Nc2ncc3cccc(-c4cncc(C(=O)N5CCNC(=O)C5)c4)c3n2)cc1` [Compound 983, 4-(8-(5-(3-oxopiperazine-1-carbonyl)pyridin-3-yl)quinazolin-2-ylamino)benzenesulfonamide], for which, in assay [1], the concentration for half-maximal inhibition (IC50) was less than 5 µM. Moreover, the EC50 in assay [2] was 5 to 10 µM.

Take `NS(=O)(=O)c1ccc(Nc2ncc3cccc(-c4cncc(C(=O)N5CCOCC5)c4)c3n2)cc1` [Compound 984, 4-(8-(5-(morpholine-4-carbonyl)pyridin-3-yl)quinazolin-2-ylamino)benzenesulfonamide]: the IC50 in assay [1] was less than 5 µM. The EC50 in assay [2] lay within 5 to 10 µM.

With `CN1CCN(c2ccc(-c3cccc4cnc(Nc5ccc(S(N)(=O)=O)cc5)nc34)cc2)CC1` [Compound 985, 4-(8-(4-(4-methylpiperazin-1-yl)phenyl)quinazolin-2-ylamino)benzenesulfonamide], in assay [1], the IC50 was less than 5 µM. Also, the EC50 in assay [2] was less than 5 µM.

As for `NS(=O)(=O)c1ccc(Nc2ncc3cccc(-c4ccc(CN5CCOCC5)cc4)c3n2)cc1` [Compound 986, 4-(8-(4-(mopholinomethyl)phenyl)quinazolin-2-ylamino)benzenesulfonamide], the concentration for half-maximal inhibition (IC50) in assay [1] is less than 5 µM. Further, the EC50 in assay [2] was less than 5 µM.

As to `NS(=O)(=O)c1ccc(Nc2ncc3cccc(C4=CCNCC4)c3n2)cc1` [Compound 987, 4-(8-(1.2,3,6-tetrahydropyridin-4-yl)quinazolin-2-ylamino)benzenesulfonamide], in assay [1], the half-inhibitory concentration (IC50) was less than 5 µM. The EC50 in assay [2] was less than 5 µM.
